The nature of series [1]: Average plasma concentration at steady state in mouse at 62 mg/kg administered bid. The class given is ADME, organism-based. The note with it: in vivo.
A short description of series [2]: AUC (0 to infinity) in human up to 1200 mg administered bid. The class given is ADME. Set-up: time infinity, dose <=1200.
The nature of series [3]: Cmax in human at 2400 mg administered bid. Type of series: ADME. Set-up: dose 2400 mg. The following applies: in vivo.
Series [4] can be described thus: Solubility of compound at pH 1. The class given is physicochemical. The following applies: buffer.
The nature of series [5]: AUC (0 to 24 hrs) at steady state in […] at 1200 mg, BID. Type of series: ADME. Set-up: time < 24 hr, dose 1200 mg. The note with it: in vivo.
Series [6] in a line: Cmax in female cynomolgus monkey at 225 mg/kg, po measured on day 1. The class given is ADME, organism-based, Macaca fascicularis. Also noted: route oral, dose 225 mg/kg. The following applies: in vivo.
Series [7] can be described thus: Clearance in female cynomolgus monkey at 75 mg/kg, po measured on day 1. The note with it: in vivo. Type of series: ADME, organism-based, Macaca fascicularis.
A short description of series [8]: Apparent oral clearance in female cynomolgus monkey at 150 mg/kg, po BID measured on day 8. The class given is ADME, organism-based, Macaca fascicularis. The following applies: in vivo.
The nature of series [9]: Stimulation of proliferation of CD8 positive T cells (unknown origin). The following applies: CD8-positive T cell. The class given is functional, tissue-based.
Series [10] in a line: Change in AUC(infinity) in rat at 185 umol/kg, po measured upto 72 hrs by LC-MS/MS analysis. The following applies: in vivo, at 185 µmol/kg. Type of series: ADME, organism-based.
A short description of series [11]: Clearance in female cynomolgus monkey at 15 mg/kg, iv measured on day 1. The class given is ADME, organism-based, Macaca fascicularis. The following applies: in vivo, time 1 day.
A short description of series [12]: Chemical stability of compound in simulated gastric fluid assessed as compound remaining at 5 uM measured after 1.5 hrs by LC-MS/MS analysis. The note with it: read-out: Stabilty. Type of series: ADME, physicochemical.
A short description of series [13]: Dissociation constant, pKa of the compound. Type of series: physicochemical.
A short description of series [14]: Solubility in water. The class given is physicochemical.
A short description of series [15]: Solubility of the compound in buffer at pH 1.58 to 6.7. Type of series: physicochemical.
A short description of series [16]: Drug metabolism in cynomolgus monkey hepatocytes assessed as unmetabolized compound at 10 uM incubated for 120 mins by UPLC-QTOF-PDA analysis. Type of series: ADME, cell-based, Macaca fascicularis, Hepatocyte. The following applies: read-out: Drug metabolism.
Series [17] is described as follows: Drug metabolism in human hepatocytes assessed as unmetabolized compound at 10 uM incubated for 120 mins by UPLC-QTOF-PDA analysis. The note with it: read-out: Drug metabolism. The class given is ADME, cell-based, Hepatocyte.
The next series deals with Cytochrome P450 2C9 (Homo sapiens, UniProt P11712). Put plainly: Inhibition of CYP2C9 in human hepatocytes. Type of series: ADME, cell-based, Hepatocyte.
Sequence of Cytochrome P450 2C9 (P11712 whole entry): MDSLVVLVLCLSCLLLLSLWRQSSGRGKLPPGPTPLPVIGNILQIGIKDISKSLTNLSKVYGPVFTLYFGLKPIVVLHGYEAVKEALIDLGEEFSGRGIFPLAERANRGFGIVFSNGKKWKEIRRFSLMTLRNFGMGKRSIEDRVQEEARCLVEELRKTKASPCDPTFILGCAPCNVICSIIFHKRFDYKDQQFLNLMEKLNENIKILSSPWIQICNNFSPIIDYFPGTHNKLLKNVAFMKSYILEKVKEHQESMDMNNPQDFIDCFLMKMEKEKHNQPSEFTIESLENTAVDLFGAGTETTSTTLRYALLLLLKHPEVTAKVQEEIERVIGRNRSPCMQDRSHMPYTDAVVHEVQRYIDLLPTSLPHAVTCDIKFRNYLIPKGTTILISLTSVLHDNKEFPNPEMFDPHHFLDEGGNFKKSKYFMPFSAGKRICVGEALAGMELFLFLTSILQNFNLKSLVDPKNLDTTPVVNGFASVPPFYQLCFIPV
In series [18] the target is T1, Solute carrier organic anion transporter family member 1B3 (Homo sapiens, UniProt Q9NPD5).
T1 sequence (Q9NPD5 whole entry): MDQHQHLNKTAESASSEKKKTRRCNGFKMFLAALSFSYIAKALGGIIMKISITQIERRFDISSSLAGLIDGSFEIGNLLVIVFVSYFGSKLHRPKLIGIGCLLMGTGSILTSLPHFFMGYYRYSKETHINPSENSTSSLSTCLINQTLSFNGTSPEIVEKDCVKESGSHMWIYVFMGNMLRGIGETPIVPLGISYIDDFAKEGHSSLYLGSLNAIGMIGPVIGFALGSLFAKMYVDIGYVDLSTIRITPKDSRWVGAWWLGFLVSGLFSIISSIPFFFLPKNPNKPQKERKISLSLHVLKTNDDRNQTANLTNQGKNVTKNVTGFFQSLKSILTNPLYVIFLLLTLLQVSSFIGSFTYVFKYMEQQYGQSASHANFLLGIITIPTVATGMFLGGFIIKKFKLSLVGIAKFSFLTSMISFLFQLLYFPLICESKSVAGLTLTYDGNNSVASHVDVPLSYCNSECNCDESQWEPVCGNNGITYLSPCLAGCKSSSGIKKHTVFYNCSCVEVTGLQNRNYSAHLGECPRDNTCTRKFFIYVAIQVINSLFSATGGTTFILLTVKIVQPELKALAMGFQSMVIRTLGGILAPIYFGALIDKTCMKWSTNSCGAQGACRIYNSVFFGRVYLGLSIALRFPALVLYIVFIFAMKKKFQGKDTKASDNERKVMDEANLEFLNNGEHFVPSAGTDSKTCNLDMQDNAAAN
Put plainly: Inhibition of OATP1B3 (unknown origin) expressed in HEK293 cells. Type of series: cell-based.

Series [19] has as its target T2, Solute carrier family 22 member 6 (Homo sapiens, UniProt Q4U2R8).
T2 sequence (Q4U2R8 whole entry): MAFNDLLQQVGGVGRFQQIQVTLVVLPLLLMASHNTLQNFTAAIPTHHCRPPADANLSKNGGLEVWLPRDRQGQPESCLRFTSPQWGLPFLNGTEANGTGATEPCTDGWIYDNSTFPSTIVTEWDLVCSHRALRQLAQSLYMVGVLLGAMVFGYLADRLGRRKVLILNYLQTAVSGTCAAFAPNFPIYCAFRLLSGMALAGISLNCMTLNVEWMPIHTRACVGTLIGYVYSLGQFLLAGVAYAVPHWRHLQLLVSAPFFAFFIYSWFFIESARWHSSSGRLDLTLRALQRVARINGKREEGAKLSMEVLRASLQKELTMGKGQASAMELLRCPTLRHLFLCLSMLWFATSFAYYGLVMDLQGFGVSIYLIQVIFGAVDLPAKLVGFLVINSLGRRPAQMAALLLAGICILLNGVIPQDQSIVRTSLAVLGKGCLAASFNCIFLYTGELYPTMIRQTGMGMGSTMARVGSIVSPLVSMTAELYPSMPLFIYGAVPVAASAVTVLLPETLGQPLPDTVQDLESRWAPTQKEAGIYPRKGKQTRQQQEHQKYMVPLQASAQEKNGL
Put plainly: Inhibition of OAT1 (unknown origin) expressed in HEK293 cells. The class given is cell-based.

Series [20] in a line: Tmax in female cynomolgus monkey at 75 mg/kg, po measured on day 1. Type of series: ADME, organism-based, Macaca fascicularis. The note with it: in vivo.
A short description of series [21]: Tmax in female cynomolgus monkey at 150 mg/kg, po BID measured on day 8. Type of series: ADME, organism-based, Macaca fascicularis. The following applies: in vivo.
Series [22] can be described thus: Drug metabolism in cynomolgus monkey assessed as formation of M9 metabolite at 75 to 675 mg/kg, po administered as single dose. Type of series: ADME, organism-based, Macaca fascicularis. The following applies: in vivo, dose 75-675 mg/kg.
The nature of series [23]: Drug metabolism in cynomolgus monkey assessed as indoximod formation by measuring indoximod Tmax at 75 to 375 mg/kg, po BID. The class given is ADME, organism-based, Macaca fascicularis. The note with it: in vivo, dose 75-375 mg/kg.
Series [24] can be described thus: Drug metabolism in mouse assessed as indoximod formation by measuring indoximod Tmax at 20 to 900 mg/kg. Type of series: ADME, organism-based. The note with it: in vivo, dose 20-900 mg/kg.
The nature of series [25]: Oral bioavailability in male cynomolgus monkey at 825 micromol/kg. Type of series: ADME, organism-based, Macaca fascicularis. The following applies: in vivo, at 825 µmol/kg.
Series [26] is described as follows: Toxicity in po dosed female rat administered twice a day. The class given is organism-based. The note with it: in vivo.
Series [27] is described as follows: Toxicity in po dosed male rat administered twice a day. The class given is organism-based. The following applies: in vivo.
Series [28] can be described thus: Cmax in male rat at 150 mg/kg, po BID measured on day 28. The class given is ADME, organism-based. Set-up: route oral, dose 150 mg/kg. The following applies: in vivo.
Series [29] is described as follows: AUC (0 to 12 hrs) in female rat at 180 mg/kg, po BID measured on day 28. Type of series: ADME, organism-based. Also noted: time < 12 hr, route oral, dose 180 mg/kg. The note with it: in vivo.
Series [30] is described as follows: Cmax in po BID dosed rat measured on day 28. Type of series: ADME, organism-based. Also noted: route oral, dose 180 mg/kg. The following applies: in vivo, 180 mg/kg.
Series [31] is described as follows: Toxicity in rat assessed as mortality at 150 to 180 mg/kg, po. Type of series: organism-based. The following applies: in vivo, dose 150-180 mg/kg.
The nature of series [32]: Toxicity in rat assessed as distended abdomen at 150 to 180 mg/kg, po. Type of series: organism-based. The following applies: in vivo, dose 150-180 mg/kg.
Series [33] is described as follows: Toxicity in monkey assessed as change in respiratory parameter. The note with it: rhesus monkey, in vivo. Also noted: species or system Macaca mulatta.

Some results are limits rather than exact numbers.

Broadly, the AUC(0-inf) is the area under the concentration-time curve extrapolated to infinity. What is called Cmax is the peak of the concentration-time curve. The solubility is how much of the substance goes into solution per volume. The AUC is concentration integrated over time. As a reminder, the CL/F is clearance divided by bioavailability, as obtained after extravascular dosing. As a reminder, the EC50 is the concentration needed to bring the measured effect to its halfway point. By clearance is commonly meant the rate of elimination divided by the concentration. With `Cn1cc(C[C@@H](N)C(=O)O)c2ccccc21` [INDOXIMOD], in [1], the Cave is more than 7 µM. This compound also returned an AUC(0-inf) in series [2] of 114 µM·h. The Cmax in [3] turned out to be 22 µM; in series [6], 68.5 µM. For the same compound, the solubility in [4] is more than 20 mg/mL. The AUC at 24 h in [5] amounted to 240 µM·h. Besides, the CL/F was 25.6 mL/min/kg in [7] and 17.6 mL/min/kg in [8]. Moreover, in series [9], the EC50 was not below 30 µM. The Activity in [10] worked out at 0%. The clearance in series [11] was determined as 10.2 mL/min/kg.

Broadly, the pKa is the pH at which an ionisable group is half protonated. What is called IC50 is the concentration that inhibits the measured activity by half. A word on the Tmax: it is the time at which the peak concentration occurs. Consider `CCOC(=O)[C@@H](Cc1cn(C)c2ccccc12)NC(=O)[C@@H](N)CC(C)C.Cl`, for which the remaining at 1.5 h, 5 µM in [12] is 92%. This compound gave a pKa in series [13] of 7.76. Besides, the solubility in series [14] is 19.8 mg/mL; in series [15], 16.3 mg/mL. The values for the remaining at 2 h, 10 µM in series [16] and in [17] were 1.3% and 0.9%, respectively. Also, the IC50 (at Cytochrome P450 2C9; in [18]; in [19]) was more than 50 µM in each case. In addition, the time to peak (Tmax) in series [20] amounted to 2 h; in [21], 1 h; in [23], 1 h; in [24] it was 1 h. In addition, the Drug metabolism result in series [22] is listed as “Metabolite_Detected”. In series [25], the F was 6%. Besides, the TD10 in series [26] and in series [27] was 150 mg/kg throughout. Further, the Cmax in series [28] was 169 µM; in [30], 110 µM. The compound also yielded an exposure (AUC) at 12 h in series [29] of 1380 µM·h. Besides, the Activity entry in series [31] is listed as “Toxic”; in [32] it was “Toxic”; in series [33] it was “Non-Toxic”.

The record behind these values is ChEMBL document CHEMBL4837181 (Eur J Med Chem, 2020).
